In patent publication US20040043942A1, “Vitamin preparations for reducing oxygen consumption during physical efforts” (priority 1996, published 2004):
“And” between values parts separate entries of the source, which are not always exact repeats. Equal values may be shown once.

Columns and labels:
[1] = test system: muscle glycogen synthesis; assay: stimulation of glycogen synthesis and of anaerobic glucose breakdown in the muscle (general statement); format: in vivo; settings: even if taken together with vitamin B1 and vitamin C
[2] = test system: two male individuals, trained for endurance cycling; assay: Example 39 a): ergometer test, medicaments and Preparations applied 15 minutes before the test; format: in vivo, human
Protocol: Analogously to Example 37, the following studies a) to c) were carried out on two male individuals, trained for endurance cycling and kept on a permanently carbohydrate-rich diet; individual A (weighing 67 kg) having a maximum oxygen uptake capacity of 3.3 l and an oxygen transport volume per heart beat of 29 ml (corresponding to 0.6 kJ), and individual B (weighing 74 kg) having a maximum oxygen uptake capacity of 4.5 l and an oxygen transport volume per heart beat of 36 ml (corresponding to 0.75 kJ). The following preparations were used, in which the indicated amounts correspond to one dose unit and which were obtained by dissolving or suspending the components in water and gelling the mixture:
H-Gly-Gly-OH was bought from Novabiochem, Läufelfingen, Switzerland. Insulin was injected subcutaneously, while the other medicaments were ingested alone or together with one of Preparations I-IV.
a) In a first study, insulin or antidiabetic sulphonylurea derivatives were applied, alone or in combination with gelatin and/or Preparation I or II, 15 minutes before the tests. In the tests, individual A was subjected to a workload of 100 W (60 r.p.m.) for 15 minutes (tests A1-A8), and individual B was subjected to a workload of 175 W (60 r.p.m.) for 10 minutes (tests B9-B29).

Compound | stimulation of glycogen synthesis and of the anaerobic glucose breakdown in the muscle (in words) [1] | effect on heat production and oxygen consumption induced by constant physical work loads (in words) ([2]; applied 15 minutes before the test) | Oxygen consumption ([2]; individual B, 175 W for 10 min, 15 min before: 5 I.U. insulin s.c., 2.5 mg glibenclamide alone, with 5 mg gelatin: 100 μg glibenclamide or 10 mg chlorpropamide, Prep. one dose unit)
O=C(CO)[C@@H](O)[C@H](O)[C@H](O)CO [fructose] | ineffective | – | –
OC[C@H]1O[C@@](CO)(O[C@H]2O[C@H](CO)[C@@H](O)[C@H](O)[C@H]2O)[C@@H](O)[C@@H]1O [sucrose] | ineffective | – | –
insulin | – | increase the heat production and oxygen consumption | 32 liter and 33 liter (2×)
